Results taken from PMC3446636 (2012).

Molecular target: Cyclin-dependent kinase 2 (CDK2) (Homo sapiens, UniProt P24941)

Km: ~100 µM
Compound: Nc1ncnc2c1ncn2[C@@H]1O[C@H](COP(=O)(O)OP(=O)(O)OP(=O)(O)O)[C@@H](O)[C@H]1O [ATP]
